The values that follow come from patent publication US7544709B2, “Derivatives of andrimide and moiramide B having antibacterial properties” (Bayer Healthcare AG, priority 2001, dated 2009).

In experiment [1] the test system is Staphylococcus aureus 133. In words: Determination of minimum inhibitory concentration (MIC), liquid dilution test. The class given is cell-based. As to the method:
(§1) Determination of Minimum Inhibitory Concentration (MIC):
(§2) The MIC is determined in the liquid dilution test. Overnight cultures of the test organisms are diluted to a cell count of 10^5 organisms per ml in Isosensitest medium (manufacturer: Difco) and are incubated with dilutions of the test substances (1:2 dilution states). Exceptions are the tests with S. pneumoniae G9A, which are conducted in BHI broth (Difco) plus 20% bovine serum, and with H. influenzae, which are conducted in BHI broth (Difco) plus 20% bovine serum, 10 μg/ml hemin and 1% Isovitale (Becton Dickinson).
(§3) The cultures are incubated at 37° C. for 18-24 hours; S. pneumoniae and H. influenzae in the presence of 8-10% CO2.
(§4) The lowest concentration of each substance at which there was no longer any visible bacterial growth is defined as the MIC. The MICs in μmol/l of some compounds according to the invention against a series of test organisms are listed by way of example in the table below.

The test system of experiment [2] is Haemophilus influenzae Spain 7. Described as above. The experiment is classed as cell-based. Particulars: SPAIN7, BHI broth plus 20% bovine serum, 10 μg/ml hemin and 1% Isovitale, 37° C., 18-24 hours, 8-10% CO2. How it is done:
as §1, §2, §3, §4

The conditions of experiment [3]: described in the literature; cited from earlier work.
[4] abbreviates: Staphylococcus aureus, 133, liquid dilution test, Isosensitest medium, 10^5 organisms per ml, 37° C., 18-24 hours, lowest concentration with no visible growth, read-out: MIC Staphylococcus aureus 133.

Converted amounts (≈) assume the structure as drawn. Like-named read-outs stand apart in the source and are kept apart here.

Take `CC(C)[C@H](NC(=O)C[C@H](NC(=O)Nc1ccccc1)c1ccccc1)C(=O)[C@@H]1C(=O)NC(=O)[C@H]1C` [Example 5, (S)-N-{(S)-2-Methyl-1-[1-((3R,4S)-4-methyl-2,5-dioxopyrrolidin-3-yl)-methanoyl]-propyl}-3-phenyl-3-(3-phenylureido)propionamide]: the MIC in experiment [1] (setting [4]) came out at 62.5 µM (≈ 29.9 µg/mL).

Regarding `CC(C)[C@H](NC(=O)C[C@H](NC(=O)NCc1ccccc1)c1ccccc1)C(=O)[C@@H]1C(=O)NC(=O)[C@H]1C` [Example 2, (S)-3-(3-Benzylureido)-N-{(S)-2-methyl-1-[1-((3R,4S)-4-methyl-2,5-dioxopyrrolidin-3-yl)-methanoyl]propyl}-3-phenylpropionamide], the MIC was 62.5 µM in experiment [2] and 3.9 µM (≈ 1.92 µg/mL) in experiment [1] (setting [4]).

As for `CC(C)[C@H](NC(=O)CC(NC(=O)Oc1ccc(-c2ccccc2)cc1)c1ccccc1)C(=O)[C@@H]1C(=O)NC(=O)[C@H]1C` (stereo partly shown) [Example 35], the MIC in experiment [1] (Staphylococcus aureus, 133, read-out: MIC Staphylococcus aureus 133) is 0.98 µM (≈ 0.545 µg/mL). Regarding `C/C=C/C=C/C=C/C(=O)N[C@@H](CC(=O)N[C@H](C(=O)[C@@H]1C(=O)NC(=O)[C@H]1C)C(C)C)c1ccccc1` [andrimid], in experiment [3], the antibacterial activity entry is given as “having antibacterial activity”. In the case of `CC(C)[C@H](NC(=O)C[C@H](NS(=O)(=O)/C=C/c1ccccc1)c1ccccc1)C(=O)[C@@H]1C(=O)NC(=O)[C@H]1C` [Example 47, (3S)-N-((1S)-2-Methyl-1-{[(3R,4S)-4-methyl-2,5-dioxo-3-pyrrolidinyl]carbonyl}-propyl)-3-phenyl-3-({[(E)-2-phenylethenyl]sulfonyl}amino)propionamide], the figures for the MIC in experiment [2] and in experiment [1] (setting [4]) were 125 µM and 7.8 µM (≈ 4.1 µg/mL), respectively. In the case of `C/C=C/C=C/C(=O)N[C@@H](CC(=O)N[C@H](C(=O)[C@@H]1C(=O)NC(=O)[C@H]1C)C(C)C)c1ccccc1` [moiramide B], the antibacterial activity result in experiment [3] was “having antibacterial activity”. As to `CC(C)[C@H](NC(=O)C[C@H](NC(=O)N(C)c1ccccc1)c1ccccc1)C(=O)[C@@H]1C(=O)NC(=O)[C@H]1C` [Example 7, (S)-N-{(S)-2-Methyl-1-[1-((3R,4S)-4-methyl-2,5-dioxopyrrolidin-3-yl)methanoyl]-propyl}-3-(3-methyl-3-phenylureido)-3-phenylpropionamide], the figures for the MIC in experiment [2] and in experiment [1] (setting [4]) were 31.3 µM and 15.6 µM (≈ 7.68 µg/mL), respectively.

As for `C[C@@H]1C(=O)NC(=O)[C@H]1C(=O)C(NC(=O)C[C@H](NC(=O)OC(C)(C)C)c1ccccc1)C1CCCC1` (stereo partly shown) [Example 33], the MIC in experiment [2] is 125 µM; in experiment [1] (setting [4]), 31.3 µM (≈ 15.2 µg/mL). For `C/C=C/C=C/C=C/C(=O)N[C@@H](CC(=O)N[C@H](C(=O)[C@@]1(O)C(=O)NC(=O)[C@H]1C)C(C)C)c1ccccc1` [moiramide C], the antibacterial activity entry in experiment [3] is “inactive”.

In the case of `COc1ccc(NC(=O)N[C@@H](CC(=O)N[C@H](C(=O)[C@@H]2C(=O)NC(=O)[C@H]2C)C(C)C)c2ccccc2)cc1` [Example 6, (S)-3-[3-(4-Methoxyphenyl)ureido]-N-{(S)-2-methyl-1-[1-((3R,4S)-4-methyl-2,5-dioxopyrrolidin-3-yl)methanoyl]propyl}-3-phenylpropionamide], the MIC in experiment [2] was found to be 62.5 µM; in experiment [1] (setting [4]), 62.5 µM (≈ 31.8 µg/mL). For `CC(C)[C@H](NC(=O)CC(NC(=O)Nc1cccc2ccccc12)c1ccccc1)C(=O)[C@@H]1C(=O)NC(=O)[C@H]1C` (stereo partly drawn) [Example 9, N-((1s)-2-Methyl-1-{[(3R,4S)-4-methyl-2,5-dioxo-3-pyrrolidinyl]carbonyl}propyl)-3-{[(1-naphthylamino)carbonyl]amino}-3-phenylpropionamide], the MIC worked out at 62.5 µM in experiment [2] and 7.8 µM (≈ 4.12 µg/mL) in experiment [1] (setting [4]). On the same counts, the results for `CC(C)[C@H](NC(=O)CC(NC(=O)Nc1ccc(Cl)c(C(F)(F)F)c1)c1ccccc1)C(=O)[C@@H]1C(=O)NC(=O)[C@H]1C` (stereo partly shown) [Example 10] are 125 µM and 7.8 µM (≈ 4.53 µg/mL).
